Measurements published in patent publication US8519149B2, “Tricyclic compounds as mPGES-1 inhibitors” (Glenmark Pharmaceuticals S.A., priority 2010, dated 2013).

Target: T1, Recombinant human mPGES-1 (Homo sapiens, UniProt O14684)
T1 sequence (O14684 1-152): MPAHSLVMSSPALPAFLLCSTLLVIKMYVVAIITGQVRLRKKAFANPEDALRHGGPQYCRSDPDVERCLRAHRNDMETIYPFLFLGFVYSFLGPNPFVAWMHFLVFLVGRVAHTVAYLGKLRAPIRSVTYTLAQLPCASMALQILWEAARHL
Test: In-vitro mPGES-1 enzyme inhibition assay (PGE2 formation from PGH2, HTRF detection)
Format: biochemical
Conditions: for inhibition at 1 µM: 1 μM test compound, read-out: Percentage inhibition at 1 μM; for inhibition at 1 µM / inhibition at 10 µM: recombinant human mPGES-1 microsomal fraction; for inhibition at 10 µM: 10 μM test compound, read-out: Percentage inhibition at 10 μM; for IC50: class symbols, selected examples
Method in brief: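 Crude microsomal fractions containing recombinant human mPGES-1 (40-60 μg/mL protein) convert PGH2 to PGE2 in the presence of reduced glutathione, with 0.5% final DMSO. Reaction stopped with stannous chloride, and PGE2 measured by anti-PGE2 antibody (HTRF) detection. IC50 by nonlinear regression of % inhibition versus uninhibited enzyme control.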

SMILES: CC(C)(C)c1ccc(NC(=O)c2cc3nc(Nc4c(Cl)cccc4Cl)[nH]c3c3nc(C4CC4)oc23)cc1 [Example-184, N-(4-tert-Butylphenyl)-2-cyclopropyl-7-[(2,6-dichlorophenyl)amino]-8H-imidazo[4,5-e][1,3]benzoxazole-4-carboxamide]
- inhibition at 1 µM: 96.9%
- inhibition at 10 µM: 95.9%
- IC50: < 50 nM

SMILES: O=C(Nc1cc(C(F)(F)F)ccc1F)c1cc2nc(Nc3c(F)cccc3Cl)[nH]c2c2nc(C3CC3)oc12 [Example-185, 7-((2-Chloro-6-fluorophenyl)amino)-2-cyclopropyl-N-(2-fluoro-5-(trifluoromethyl)phenyl)-8H-imidazo[4′,5′:5,6]benzo[1,2-d]oxazole-4-carboxamide]
- inhibition at 1 µM: 94.4%
- inhibition at 10 µM: 98.5%
- IC50: < 50 nM

SMILES: Cc1nc2c(o1)c(C(=O)Nc1cc(C(F)(F)F)ccc1F)cc1nc(Nc3c(F)cccc3Cl)[nH]c12 [Example-186, 7-((2-Chloro-6-fluorophenyl)amino)-N-(2-fluoro-5-(trifluoromethyl)phenyl)-2-methyl-8H-imidazol[4′,5′:5,6]-benzo[1,2-d]oxazole-4-carboxamide]
- inhibition at 1 µM: 98.6%
- inhibition at 10 µM: 98.5%
- IC50: < 50 nM

SMILES: Cc1nc2c(o1)c(C(=O)Nc1ccc(F)c(C(F)(F)F)c1)cc1nc(Nc3c(F)cccc3Cl)[nH]c12 [Example-187, 7-((2-Chloro-6-fluorophenyl)amino)-N-(4-fluoro-3-(trifluoromethyl)phenyl)-2-methyl-8H-imidazo[4′,5′:5,6]benzo[1,2-d]oxazole-4-carboxamide]
- inhibition at 1 µM: 95.8%
- inhibition at 10 µM: 83%
- IC50: < 50 nM

SMILES: Cc1nc2c(o1)c(C(=O)NCc1ccccc1C(F)(F)F)cc1nc(Nc3c(Cl)cccc3Cl)[nH]c12 [Example-188, 7-[(2,6-Dichlorophenyl)amino]-2-methyl-N-[2-(trifluoromethyl)benzyl]-8H-imidazo[4,5-e][1,3]benzoxazole-4-carboxamide]
- inhibition at 1 µM: 98.1%
- inhibition at 10 µM: 99.4%
- IC50: 50 to 100 nM

SMILES: Cc1nc2c(o1)c(C(=O)NC1CCC(F)(F)CC1)cc1nc(Nc3c(Cl)cccc3Cl)[nH]c12 [Example-189, 7-[(2,6-Dichlorophenyl)amino]-N-(4,4-difluorocyclohexyl)-2-methyl-8H-imidazo[4,5-e][1,3]benzoxazole-4-carboxamide]
- inhibition at 1 µM: 53.9%
- inhibition at 10 µM: 91.1%

SMILES: Cc1nc2c(o1)c(C(=O)Nc1ccc(C(C)(C)C#N)cc1)cc1nc(Nc3c(Cl)cccc3Cl)[nH]c12 [Example-190, N-[4-(2-Cyanopropan-2-yl)phenyl]-7-[(2,6-dichlorophenyl)amino]-2-methyl-8H-imidazo[4,5-e][1,3]benzoxazole-4-carboxamide]
- inhibition at 1 µM: 81.2%
- inhibition at 10 µM: 89.5%
- IC50: > 100 nM

SMILES: CC1(C)Cc2c(c(C(=O)Nc3ccc(C(F)(F)F)nc3)cc3nc(Nc4c(F)cccc4Cl)[nH]c23)O1 [Example-191, 2-((2-Chloro-6-fluorophenyl)amino)-7,7-dimethyl-N-(6-(trifluoromethyl)pyridin-3-yl)-7,8-dihydro-1H-benzofuro[4,5-d]imidazole-5-carboxamide]
- inhibition at 1 µM: 96.1%
- inhibition at 10 µM: 96.3%
- IC50: < 50 nM

SMILES: Cc1cccc(Cl)c1Nc1nc2cc(C(=O)Nc3cc(F)c(F)cc3F)c3c(c2[nH]1)CC(C)(C)O3 [Example-192, 2-((2-Chloro-6-methylphenyl)amino)-7,7-dimethyl-N-(2,4,5-trifluorophenyl)-7,8-dihydro-1H-benzofuro[4,5-d]imidazole-5-carboxamide]
- inhibition at 1 µM: 97.1%
- inhibition at 10 µM: 96.5%
- IC50: < 50 nM

SMILES: CC1(C)Cc2c(c(C(=O)Nc3cc(F)c(F)cc3F)cc3nc(Nc4c(F)cccc4Cl)[nH]c23)O1 [Example-193, 2-((2-Chloro-6-fluorophenyl)amino)-7,7-dimethyl-N-(2,4,5-trifluorophenyl)-7,8-dihydro-1H-benzofuro[4,5-d]imidazole-5-carboxamide]
- inhibition at 1 µM: 96.4%
- inhibition at 10 µM: 94.7%
- IC50: < 50 nM
